# Assay results published in patent US8501693B2, “Use of exendins and exendin agonists and GLP-1 receptor agonists for altering the concentration of fibrinogen” (Amylin Pharmaceuticals, LLC, priority 2006, dated 2013).
# Tests used:
# Fibrinogen = Fibrinogen concentration by the von Clauss clotting method in the 1-year open-label exenatide vs biphasic insulin aspart trial; type: in vivo, human; settings: patients with type 2 diabetes
# Method: For test meal data, postprandial glucose incremental AUC0-4h is calculated at baseline and week 52.
# Fibrinogen activity is measured by the von Clauss clotting method. By the von Clauss clotting method, thrombin is added to a test sample and the time until clotting is measured. Fibrinogen concentration is determined by comparing clotting time for the test sample to the clotting time of a standard curve for various reference plasmas.
# Fibrinogen is measured at baseline, Week 16, Week 52, or at early termination of the study.
# [1] = test system: lipoprotein subclass particles (LDL, HDL, VLDL); assay: Lipoprotein subclass particle concentration and particle size by proton NMR in the 1-year open-label exenatide vs biphasic insulin aspart trial; type: in vivo, human; settings: change from baseline to endpoint
# Method: Lipoprotein subclass particle concentrations and average particle diameters are measured using proton nuclear magnetic resonance spectroscopy.
# The particle concentrations of different lipoprotein subclasses are obtained by measuring the amplitudes of the characteristic lipid methyl NMR signals. The signal amplitudes of various subclasses are extracted from the overall lipid methyl group signal with a spectral deconvolution algorithm (LipoScience, Inc.). See e.g., Festa. VLDL and LDL particle concentrations are given in nanomoles per liter. HDL particle concentrations are provided in micromoles per liter.
# Average particle sizes (in nanometers diameter) are computed as the sum of the diameter of the particle subclass multiplied by the relative mass percentage of the subclass as estimated from the amplitude of its methyl NMR signal.
# Particle concentrations and sizes are compared before and after administration of an exendin or exendin agonist. See e.g., Table 1.
# [2] = patients with type 2 diabetes, fasting
# [3] = particle concentration, patients with type 2 diabetes
substance,measurement,setting,value
biphasic insulin aspart 30/70,"Fibrinogen level, Mean, Baseline",Fibrinogen; Baseline (before treatment) of the treatment group,4.22 g/L
same,"Fibrinogen level, Mean, Endpoint (LOCF)","Fibrinogen; Endpoint, last post-baseline measurement carried forward (Week 16, Week 52 or early termination)",4.16 g/L
same,LDL Particle Size Δ mean (SEM),"[1]; patients with type 2 diabetes inadequately controlled by sulphonylurea and metformin, fasting",+0.11 (0.12) p = .356 nm
same,HDL Particle Size Δ mean (SEM),[1]; [2],+0.04 (0.05) p = .391 nm
same,VLDL Particle Size Δ mean (SEM),[1]; [2],−1.6 (2.2) p = .482 nm
same,Large HDL Δ mean (SEM),[1]; [3],+1.0 (0.4) p = .014 μmol/L
same,Large LDL Δ mean (SEM),[1]; [3],+37.7 (32.8) p = .258 nmol/L
same,Small LDL Δ mean (SEM),[1]; [3],−25.8 (81.2) p = .753 nmol/L
same,Small VLDL Δ mean (SEM),[1]; [3],+8.5 (4.2) p = .049 nmol/L
same,Total HDL Δ mean (SEM),[1]; [3],+2.5 (0.9) p = .012 μmol/L
same,Total LDL Δ mean (SEM),[1]; [3],+5.0 (75) p = .947 nmol/L
same,Total VLDL Δ mean (SEM),[1]; [3],+12.9 (6.6) p = .056 nmol/L
same,Very Small LDL Δ mean (SEM),[1]; [3],−17.0 (64.6) p = .794 nmol/L
